US20100069441A1, “ANTIMICROBIAL INDOLINE COMPOUNDS FOR TREATMENT OF BACTERIAL INFECTIONS” (priority 2008, published 2010)
In brackets after ≈: the same amount, converted by molar mass. Like-named read-outs stand apart in the source and are kept apart here.

What was measured:
[1] = system: methicillin-resistant Staphylococcus aureus (MRSA; from the Massachusetts General Hospital, USA); experiment: Antibacterial activity (MIC) against MRSA clinical isolate; assay type: cell-based; conditions: clinical isolate of MRSA, agar dilution
Source text: Compounds of this invention can have useful activity against a variety of pathogenic microorganisms. The in vitro activity of compounds of this invention can be assessed by standard testing procedures such as the determination of minimum inhibitory concentration (MIC) by agar dilution as described in “Approved Standard. Methods for Dilution Antimicrobial Susceptibility Tests for Bacteria That Grow Aerobically”, 3rd. ed., published 1993 by the National Committee for Clinical Laboratory Standards, Villanova, Pennsylvania, USA. Minimum inhibitory concentration (MIC) refers to the lowest concentration of drug (μg/mL) that inhibits visible growth of the organism. Lower MIC values indicate a higher antibacterial activity. […] The useful activity of compounds of the present invention against a clinical isolate of methicillin-resistant Staphylococcus aureus (MRSA; from the Massachusetts General Hospital, USA) is illustrated by the MIC data of Table 1.

[2] = system: human CD34+ bone marrow cells; experiment: Bone marrow CD34+ cell growth inhibition (myelosuppressive potential), luminescence assay; assay type: cell-based; conditions: normalized IC50 ratio over reference compound of Example 18; incubation 9-10 days; higher ratio = reduced myelosuppression
Procedure: Myelosuppressive potential (hematopoietic or bone marrow toxicity) was evaluated using human CD34^+ bone marrow cells, generally following methods described by Leach in International Patent Publication No. WO 2006/097828. Thus, an oxazolidinone compound was incubated with fresh human bone marrow cells for 9-10 days at 37° C. in 5% CO2 atmosphere. At end of the incubation period, the bone marrow toxicity was accessed by measuring inhibition (IC50, μg/mL) of CD34^+ cell growth using a luminescence assay. Lower IC50 value indicates a higher myelosuppression potential with enhanced probability of undesired adverse effects in vivo, while a higher IC50 value indicates reduced bone marrow toxicity. For comparison, the data are represented as normalized IC50 ratio indicating the fold of improvement over the reference compound of Example 18, based on IC50 for each compound in the CD34 assay.

S. aureus = experiment: In vivo antibacterial efficacy (ED50) in mice infected intraperitoneally; conditions: Staphylococcus aureus, po
Procedure: Determination of in vivo efficacy was performed by inoculating mice intraperitoneally with cultures of infecting organism using Linezolid as control. The compound was dissolved in DMSO with 20% cyclodextrin, diluted with deionized water, and administered orally (p.o.). The mice were dosed 1 hours after infection. Mortality was recorded after 72 hours. The 50% effective dose (ED50, mg/kg) was calculated at the end of the test.

[3] = target: T1, Human monoamine oxidase (MOA) A type enzyme (Homo sapiens, UniProt P21397); experiment: Monoamine oxidase A inhibition (MAO-Glo assay); assay type: biochemical; conditions: MAO-Glo kit
T1 construct: purchased BD Gentest
T1 sequence (P21397 1-527): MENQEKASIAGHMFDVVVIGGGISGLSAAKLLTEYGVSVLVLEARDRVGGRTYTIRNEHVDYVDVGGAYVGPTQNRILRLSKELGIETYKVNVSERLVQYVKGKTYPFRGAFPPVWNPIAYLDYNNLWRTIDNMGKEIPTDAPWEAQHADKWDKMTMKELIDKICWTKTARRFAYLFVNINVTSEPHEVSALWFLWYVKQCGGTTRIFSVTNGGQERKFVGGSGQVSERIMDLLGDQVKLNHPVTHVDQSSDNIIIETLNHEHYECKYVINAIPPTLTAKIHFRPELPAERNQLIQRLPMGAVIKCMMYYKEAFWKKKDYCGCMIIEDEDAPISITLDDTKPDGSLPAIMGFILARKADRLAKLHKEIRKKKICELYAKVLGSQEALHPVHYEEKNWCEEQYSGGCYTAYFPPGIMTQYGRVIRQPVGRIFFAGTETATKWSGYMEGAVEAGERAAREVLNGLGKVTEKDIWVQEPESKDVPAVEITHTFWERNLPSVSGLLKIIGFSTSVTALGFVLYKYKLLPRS
Procedure: Human monoamine oxidase (MOA) A type enzyme inhibition activity for select compounds was measured using a commercial MAO assay kit MAO-Glo™ from Promega Co. (USA). The assay was performed as described in the company's technical bulletin “MAO-Glo™ Assay”. The protocol involves an incubation of the MAO A enzyme (BD Gentest™) with a luminogenic MAO substrate to produce an enzymatic product which is converted to luciferin by a coupled reaction. The released luciferin undergoes further transformation to generate light that is detected and measured. The amount of the light is directly proportional to the activity of MAO. Percent inhibition at several concentrations is established relative to the uninhibited control rate, and the IC50 (μg/mL) values are calculated. […] The MAO inhibition data for select compound of this invention are illustrated in the Table 3 below.

[4] = mice, p.o., dosed 1 hour after infection, mortality recorded after 72 hours, read-out: ED50

Structure (SMILES) | MIC [1] [µg/mL] | CD34 IC50 RATIO [2] | ED50 (S. aureus) [mg/kg] | ED50 (S. aureus; [4]) [mg/kg] | IC50 [3] [µM]
Cc1nnn(-c2ccc(-c3ccc4c(c3)C[C@H]3[C@H](CO)OC(=O)N43)cn2)c1C [Example 29] | 1 (≈ 2.65 µM) | 15.5 | – | – | –
Cn1nncc1-c1ccc(-c2ccc3c(c2)C[C@H]2[C@H](COP(=O)([O-])[O-])OC(=O)N32)cn1.[Na+].[Na+] [Example 33] | – | – | 9.1 | – | –
O=C1OCCN1c1ccc(-c2ccc3c(c2)C[C@H]2[C@H](CO)OC(=O)N32)cn1 [Example 28] | 0.25 (≈ 0.681 µM) | 2.3 | – | – | –
Cn1ncc(-c2ccc(-c3ccc4c(c3)C[C@H]3[C@H](CO)OC(=O)N43)cn2)n1 [Example 22] | – | 8.3 | – | – | –
O=C1O[C@@H](CO)[C@@H]2Cc3cc(-c4ccc(-n5cnnn5)nc4)ccc3N12 [Example 3] | 0.25 (≈ 0.714 µM) | – | – | 3.3 | –
O=C1O[C@@H](CO)[C@@H]2Cc3cc(-c4ccc(-n5cc(CF)nn5)nc4)ccc3N12 [Example 27] | 0.25 (≈ 0.656 µM) | 1.6 | – | – | –
Cn1cc(-c2ccc(-c3ccc4c(c3)C[C@H]3[C@H](CO)OC(=O)N43)cn2)nn1 [Example 26] | 1 (≈ 2.75 µM) | 11.4 | – | – | –
CC(=O)NC[C@@H]1OC(=O)N2c3ccc(-c4ccc(-n5cc(C(C)(C)O)nn5)nc4)cc3C[C@@H]12 [Example 12] | 1 (≈ 2.23 µM) | 2.5 | – | – | –
Cc1nnc(-c2ccc(-c3ccc4c(c3)C[C@H]3[C@H](COP(=O)([O-])[O-])OC(=O)N43)cn2)o1.[Na+].[Na+] [Example 32] | – | – | 10 | – | –
N#CCc1cn(-c2ccc(-c3ccc4c(c3)C[C@H]3[C@H](COP(=O)([O-])[O-])OC(=O)N43)cn2)nn1.[Na+].[Na+] [Example 39] | – | – | – | 10 | –
CC(=O)NC[C@@H]1OC(=O)N2c3ccc(-c4cccnc4)cc3C[C@H]12 [Example 18, reference compound] | – | 1 | – | – | –
Cc1cn(-c2ccc(-c3ccc4c(c3)C[C@H]3[C@H](CO)OC(=O)N43)cn2)nn1 [Example 30] | 0.25 (≈ 0.688 µM) | 4.1 | – | – | –
CC(=O)NC[C@@H]1OC(=O)N2c3ccc(-c4ccc(-c5noc(C)n5)nc4)cc3C[C@@H]12 [Example 14] | 1 (≈ 2.47 µM) | 2.0 | – | – | > 247
COC(=O)NC[C@@H]1OC(=O)N2c3ccc(-c4ccc(-c5nnn(C)n5)nc4)cc3C[C@@H]12 [Example 7] | 1 (≈ 2.37 µM) | – | – | – | > 237
Cc1nnc(-c2ccc(-c3ccc4c(c3)C[C@H]3[C@H](CO)OC(=O)N43)cn2)o1 [Example 23] | 0.25 (≈ 0.686 µM) | 2.5 | – | 5.3 | –
CC(=O)NC[C@@H]1OC(=O)N2c3ccc(-c4ccc(-n5cc(CO)nn5)nc4)cc3C[C@H]12 [Example 13] | 1 (≈ 2.38 µM) | 2.5 | – | – | > 238
Cn1nnc(-c2ccc(-c3ccc4c(c3)C[C@H]3[C@H](CO)OC(=O)N43)cn2)n1 [Example 1] | 0.5 (≈ 1.37 µM) | 4.6 | – | 4.2 | –
CC(=O)NC[C@H]1CN(c2ccc(N3CCOCC3)c(F)c2)C(=O)O1 [Linezolid, linezolid, reference compound] | 2 (≈ 5.93 µM) | – | – | – | 12.2
CC(=O)NC[C@@H]1OC(=O)N2c3ccc(-c4ccc(-n5cncn5)nc4)cc3C[C@H]12 [Example 16] | 0.5 (≈ 1.28 µM) | – | – | – | 43
Cn1nnc(-c2ccc(-c3ccc4c(c3)C[C@H]3[C@H](COP(=O)([O-])[O-])OC(=O)N43)cn2)n1.[Na+].[Na+] [Example 5] | – | – | – | 5.6 | –
N#CCc1cn(-c2ccc(-c3ccc4c(c3)C[C@H]3[C@H](CO)OC(=O)N43)cn2)nn1 [Example 24] | 0.25 (≈ 0.644 µM) | 1.6 | – | 9.8 | –
CC(=O)NC[C@@H]1OC(=O)N2c3ccc(-c4ccc(-c5cc(CO)on5)nc4)cc3C[C@H]12 [Example 17] | 1 (≈ 2.38 µM) | 4.5 | – | – | –
N#CCn1nnc(-c2ccc(-c3ccc4c(c3)C[C@H]3[C@H](CO)OC(=O)N43)cn2)n1 [Example 21] | 0.25 (≈ 0.642 µM) | 2.3 | – | 9.5 | –
CC(=O)NC[C@@H]1OC(=O)N2c3ccc(-c4ccc(-n5cc(C)nc5C)nc4)cc3C[C@H]12 [Example 15] | 4 (≈ 9.58 µM) | – | – | – | –
Cc1cnnn1-c1ccc(-c2ccc3c(c2)C[C@H]2[C@H](CO)OC(=O)N32)cn1 [Example 20] | – | 14.8 | – | – | –
Cn1nnnc1-c1ccc(-c2ccc3c(c2)C[C@H]2[C@H](CO)OC(=O)N32)cn1 [Example 2] | 0.5 (≈ 1.37 µM) | 3.3 | – | 6.1 | –
Cn1nncc1-c1ccc(-c2ccc3c(c2)C[C@H]2[C@H](CO)OC(=O)N32)cn1 [Example 25] | 0.25 (≈ 0.688 µM) | 4.9 | – | 9.6 | –
